From ChEMBL document CHEMBL2375353, “Efficient induction of apoptosis in HeLa cells by a novel cationic porphycene photosensitizer” (Eur J Med Chem, 2013)
The source made the active and inactive calls. The calls are words filed in the database; no cut-off is given here.

Legend:
HeLa [1] = assay: Induction of apoptosis in human HeLa cells assessed as reduction in F-actin expression at 0.75 to 0.5 uM incubated for 18 hrs by immunostaining assay; assay type: cell-based
HeLa [2] = assay: Induction of apoptosis in human HeLa cells assessed as reduction in vinculin expression at 0.75 to 0.5 uM incubated for 18 hrs by immunostaining assay; assay type: cell-based
HeLa [3] = assay: Induction of apoptosis in human HeLa cells assessed as reduction in F-actin expression at 0.5 uM incubated for 18 hrs followed by red light irradiation measured after 3 hrs by immunostaining assay; assay type: functional, cell-based
HeLa [4] = assay: Induction of apoptosis in human HeLa cells assessed as reduction in vinculin expression at 0.5 uM incubated for 18 hrs followed by red light irradiation measured after 3 hrs by immunostaining assay; assay type: functional, cell-based
HeLa [5] = assay: Induction of necrosis in human HeLa cells assessed as disorganization of F-actin at 0.75 uM incubated for 18 hrs followed by red light irradiation measured after 24 hrs by immunostaining; assay type: functional, cell-based
HeLa [6] = assay: Induction of necrosis in human HeLa cells assessed as cellular damage at 0.75 uM incubated for 18 hrs followed by red light irradiation measured after 24 hrs; assay type: functional, cell-based
HeLa [7] = assay: Induction of apoptosis in human HeLa cells assessed as reduction in vinculin expression at 0.5 uM incubated for 18 hrs followed by red light irradiation measured after 24 hrs by immunostaining assay; assay type: functional, cell-based
HeLa [8] = assay: Induction of apoptosis in human HeLa cells assessed as membrane bubble at 0.5 uM incubated for 18 hrs followed by red light irradiation measured after 6 hrs by immunostaining assay; assay type: functional, cell-based
HeLa [9] = assay: Induction of apoptosis in human HeLa cells assessed as apoptotic chromatin at 0.5 uM incubated for 18 hrs followed by red light irradiation measured after 6 hrs by immunostaining assay; assay type: functional, cell-based
HeLa [10] = assay: Induction of apoptosis in human HeLa cells assessed as reduction in F-actin expression at 0.5 uM incubated for 18 hrs followed by red light irradiation measured after 6 hrs by immunostaining assay; assay type: functional, cell-based
HeLa [11] = assay: Induction of apoptosis in human HeLa cells assessed as reduction in vinculin expression at 0.5 uM incubated for 18 hrs followed by red light irradiation measured after 6 hrs by immunostaining assay; assay type: functional, cell-based
HeLa [12] = assay: Induction of apoptosis in human HeLa cells assessed as microtubule alteration at 0.75 uM incubated for 18 hrs followed by red light irradiation after 3 to 24 hrs by […]; assay type: functional, cell-based
HeLa [13] = assay: Induction of apoptosis in human HeLa cells assessed as microtubule alteration at 0.5 uM incubated for 18 hrs followed by red light irradiation after 6 to 24 hrs by […]; assay type: functional, cell-based
HeLa [14] = assay: Induction of apoptosis in human HeLa cells assessed as reduction in cell volume at 0.5 uM incubated for 18 hrs followed by red light irradiation measured after 3 hrs by Hoechst-33258 staining; assay type: functional, cell-based
HeLa [15] = assay: Induction of necrosis in human HeLa cells at 0.5 to 0.75 uM incubated for 18 hrs by Hoechst-33258 staining; assay type: cell-based
HeLa [16] = assay: Induction of necrosis in human HeLa cells at 0.75 uM incubated for 18 hrs followed by red light irradiation by Hoechst-33258 staining; assay type: functional, cell-based
HeLa [17] = assay: Induction of apoptosis in human HeLa cells at 0.5 uM incubated for 18 hrs followed by red light irradiation by Hoechst-33258 staining; assay type: functional
HeLa [18] = assay: Induction of apoptosis in human HeLa cells assessed as membrane blebbing at 0.5 uM incubated for 18 hrs prior to red light irradiation measured after 6 hrs by phase contrast microscopy; assay type: functional, cell-based
HeLa [19] = assay: Induction of apoptosis in human HeLa cells assessed as fragmented chromatin at 0.5 uM incubated for 18 hrs prior to red light irradiation measured after 6 hrs by immunofluorescence method; assay type: functional, cell-based
HeLa [20] = assay: Induction of apoptosis in human HeLa cells assessed as swollen mitochondria at 0.5 uM incubated for 18 hrs prior to red light irradiation measured after 3 hrs by immunofluorescence method; assay type: functional, cell-based
HeLa [21] = assay: Induction of apoptosis in human HeLa cells at 0.5 uM incubated for 18 hrs prior to red light irradiation measured after 6 hrs by TUNEL assay; assay type: functional, cell-based
HeLa [22] = assay: Induction of apoptosis in human HeLa cells at 0.5 uM incubated for 18 hrs prior to red light irradiation measured after 24 hrs; assay type: functional
HeLa [23] = assay: Induction of apoptosis in human HeLa cells assessed as relocalization of proapoptotic Bax protein within mitochondria at 0.5 uM incubated for 18 hrs prior to red light irradiation measured after 3 to 24 hrs by indirect immunofluorescence; assay type: functional, cell-based
HeLa [24] = assay: Induction of necrosis in human HeLa cells assessed as breaking of giant bubble at 0.75 uM incubated for 18 hrs prior to red light irradiation measured after 6 hrs by phase contrast microscopy; assay type: functional, cell-based
HeLa [25] = assay: Induction of necrosis in human HeLa cells assessed as chromatin condensation at 0.75 uM incubated for 18 hrs prior to red light irradiation measured after 1 hr by Hoechst-33258 staining; assay type: functional, cell-based
HeLa [26] = assay: Induction of necrosis in human HeLa cells assessed as giant bubble formation at 0.75 uM incubated for 18 hrs prior to red light irradiation measured after 1 hr by phase contrast microscopy; assay type: functional, cell-based
HeLa [27] = assay: Induction of necrosis in human HeLa cells at 0.5 uM incubated for 18 hrs prior to red light irradiation measured after 6 to 24 hrs by Hoechst-33258 staining; assay type: functional, cell-based
HeLa [28] = assay: Induction of necrosis in human HeLa cells at 0.5 uM incubated for 18 hrs prior to red light irradiation measured after 6 to 24 hrs by neutral red staining; assay type: functional, cell-based
HeLa [29] = assay: Induction of apoptosis in human HeLa cells at 0.5 uM incubated for 18 hrs prior to red light irradiation measured after 6 to 24 hrs by Hoechst-33258 staining; assay type: functional, cell-based
HeLa [30] = assay: Induction of apoptosis in human HeLa cells at 0.5 uM incubated for 18 hrs prior to red light irradiation measured after 6 to 24 hrs by neutral red staining; assay type: functional, cell-based
HeLa [31] = assay: Induction of apoptosis in human HeLa cells assessed as nuclear fragmentation at 0.5 uM incubated for 18 hrs prior to red light irradiation measured after 3 hrs by Hoechst-33258 staining; assay type: functional, cell-based
HeLa [32] = assay: Induction of apoptosis in human HeLa cells assessed as chromatin condensation at 0.5 uM incubated for 18 hrs prior to red light irradiation measured after 3 hrs by Hoechst-33258 staining; assay type: functional, cell-based

With `COCc1ccc(C2=Cc3nc2ccc2[nH]c(cc2-c2ccc(C[n+]4ccccc4)cc2)c2nc(ccc4[nH]c3cc4-c3ccc(C[n+]4ccccc4)cc3)C(c3ccc(C[n+]4ccccc4)cc3)=C2)cc1.[Br-].[Br-].[Br-]` the Activity (HeLa [1]) was “Non-toxic”, the Activity (HeLa [2]) was “Non-toxic” and the Activity (HeLa [3]) was “Active”. The Activity (HeLa [4]) was “Active”, the Activity (HeLa [5]) was “Active” and the Activity (HeLa [6]) was “Active”. For the same compound, the Activity (HeLa [7]) was “Active”, the Activity (HeLa [8]) was “Active” and the Activity (HeLa [9]) was “Active”. The Activity (HeLa [10]) was “Active”, the Activity (HeLa [11]) was “Active” and the Activity (HeLa [12]) was “Active”. For the same compound, the Activity (HeLa [13]) was “Active”, the Activity (HeLa [14]) was “Active” and the Activity (HeLa [15]) was “Non-toxic”. For the same compound, the Activity (HeLa [16]) was “Active”, the Activity (HeLa [17]) was 70% and the Activity (HeLa [18]) was “Active”. The Activity (HeLa [19]) was “Active”, the Activity (HeLa [20]) was “Active” and the Activity (HeLa [21]) was “Active”. For the same compound, the Activity (HeLa [22]) was 70%, the Activity (HeLa [23]) was “Active” and the Activity (HeLa [24]) was “Active”. For the same compound, the Activity (HeLa [25]) was “Active”, the Activity (HeLa [26]) was “Active” and the Activity (HeLa [27]) was “Active”. For the same compound, the Activity (HeLa [28]) was “Active”, the Activity (HeLa [29]) was “Active” and the Activity (HeLa [30]) was “Active”. For the same compound, the Activity (HeLa [31]) was “Active” and the Activity (HeLa [32]) was “Active”.
